In general, melting point refers to the temperature of the solid-liquid transition.

Take `COC1(c2ccccc2)N=CC(=O)N(C)c2ccc(Cl)cc21` (stereo not drawn): the melting point lay in the range of 146 to 147 °C.

On to `NC(=O)c1ccc(-c2cccc3cc(Cc4cccc(C(F)(F)F)c4)sc23)cc1`, for which the melting point lay in the range of 175 to 176 °C.

With `Cc1ccc2c(c1)S(=O)(=O)N=CN2C1CC1`, the melting point was in the range of 192 to 195 °C.

With `COc1cn(C(C)=O)c2ccc(F)c(Cl)c12`, the melting point was in the range of 114 to 115 °C. Then `CCOC(=O)c1sc(OCC)nc1C(F)(F)F`, with 30.5 to 31.5 °C.

`COC1OCC[C@@H]1NC(=O)[C@H](CC1CCCCC1)NC(=O)CNC(=O)COc1ccc2c(c1)Nc1ccccc1S2` (stereo partly drawn) had a melting point of 179 to 180 °C. For `COc1cc2[nH]ccc2cc1Br`, the melting point fell in the range of 110 to 111 °C. As to `COC1C=C(C)C(=O)CC(C)(C)C1OC(=O)c1ccc([N+](=O)[O-])c([N+](=O)[O-])c1` (stereo not drawn), the melting point was in the range of 103 to 104 °C. Then `C[C@H](NC(=O)CCC1CCC(=O)N1)C(=O)O` (stereo partly drawn), with 174 to 179 °C.

In turn, `Cc1cccc2c(C3=CCN(C[C@H](O)COc4cccc5[nH]ccc45)CC3)c[nH]c12` returned a melting point of 155 to 158 °C. In turn, `CCOC(=O)C=C[C@H](Cc1ccc(-c2ccccc2)cc1)NC(=O)OC(C)(C)C` yielded a melting point of 91 to 94 °C. Then `CC(C)NC(=O)OCC(=O)c1ccc(Cl)cc1`, with 163 to 164 °C. Compound `CC(=O)NC[C@H]1CN(c2ccc(N3CCC4(CC3)CC4(C#N)C#N)c(F)c2)C(=O)O1` came in with a melting point of 188 to 190 °C. Then `CS(=O)(=O)c1ccc(-c2nc(C(F)(F)F)nn2-c2ccc(O)cc2)cc1`, with 246 °C; and `CC(C)(C)OC(=O)N1CCc2c(n(CCCc3ccccc3)c3ccc(Cl)c(Cl)c23)CC1`, with 114 to 116 °C; and `COc1ccccc1N1CCN(CCn2c(=O)c3sccc3n(C(C)=O)c2=O)CC1`, with 156 to 158 °C.

For `CCSc1cc(C(=O)O)cc(S(N)(=O)=O)c1Oc1ccccc1`, the melting point was 225 to 227 °C.

`COc1cc(C(C)O)c(F)cc1Cl` (stereo not drawn) registered a melting point of 68.5 to 69.5 °C. Then `CC(=O)N1N=C(c2ccc([N+](=O)[O-])c(C)c2)c2cc3c(cc2CC1C(N)=O)OCO3` (stereo not drawn), with 157 to 161 °C; and `COc1ccc(Cn2cc[nH]c2=S)cc1F`, with 156 to 157 °C; and `O=C1Nc2ccc(Cl)cc2[C@@](/C=C/C2CC2)(C(F)(F)F)O[C@H]1C1CC1` (relative stereo), with 143 to 144 °C. With `CCn1nc2c(N)nc3ccccc3c2c1CC1(F)CCOCC1`, the melting point fell in the range of 275 to 277 °C. Then `CN1CCCC[C@H]1C[C@H](O)c1ccc(Br)cc1`, with 102 to 104 °C; and `Cc1cc(C)c(C=NCc2ccc(Cl)nc2)c(C)c1`, with 47 to 48 °C.

`O=c1c2c(Cc3ccccc3O)n[nH]c2c2cccnc2n1-c1ccccc1` gave a melting point of 278 to 280 °C. With `N#Cc1cccc(-c2ccccn2)n1`, the melting point fell in the range of 136 to 137 °C. Then `NC1CCCN(C(=O)c2ccc(NC(=O)c3ccccc3Cl)cc2)c2ccccc21` (stereo not drawn), with 176 to 178 °C. The compound `OCc1cc(Cl)c(N=C2NCCN2)c(Cl)c1` gave a melting point of 208 to 210 °C. In turn, `CCn1nc(C)c2c1C(=O)NCC(c1ccccc1O)=N2` showed a melting point of 220 °C.

Compound `COC(=O)C(c1cc2c(cc1Cl)OCO2)c1cn(C)c2cc(Br)ccc12` (stereo not drawn) gave a melting point of 183 to 185 °C. On to `CNC(=O)c1cc(C)ccc1Nc1nc(Cl)ncc1Cl`, for which the melting point lay in the range of 192 to 210 °C. The compound `C#Cc1c(C#N)nn(-c2c(Cl)cc(OC(F)(F)F)cc2Cl)c1N` gave a melting point of 176 °C.

As to `COc1ccc(C(=O)Nc2ccc(Cl)c(Cl)c2)cc1NC(=S)Nc1ccc(S(N)(=O)=O)cc1`, the melting point is 190 to 193 °C.

(Values after a melting point compilation (Tetko et al.; mined from patent text by program, amines drawn as free bases though some values may be those of a salt).)
